ChEMBL document CHEMBL5050844 (2019)

How the values were obtained:
[1] = target: T1, E3 ubiquitin-protein ligase CBL-B (Homo sapiens, UniProt Q13191); assay: Inhibition of N-terminal Avi-tagged human CBL-B (36 to 427 residues) incubated with 30 nM Src kinase for 1.5 hrs followed by incubation with fluorescently labeled UbcH5B-Ub for 1 hr and measured by TR-FRET assay
[2] = target: T1, E3 ubiquitin-protein ligase CBL-B; assay: Binding affinity towards N-terminal biotinylated Avi-tagged human CBL-B (36 to 427 residues) measured by surface plasmon resonance assay
[3] = Induction of activation of human CD56+ CD3- NK cells co-cultured with human K562 cells in 5:1 ratio and assessed as increase in IFN-gamma secretion at 10 uM measured by ELISA assay; format: functional, Natural killer cell
[4] = Induction of activation of human CD56+ CD3- NK cells co-cultured with human K562 cells in 5:1 ratio and assessed as increase in IFN-gamma secretion at 1 uM measured by ELISA assay; format: functional, Natural killer cell
[5] = Induction of activation of human CD56+ CD3- NK cells co-cultured with human K562 cells in 1:1 ratio and assessed as increase in IFN-gamma secretion at 10 uM measured by ELISA assay; format: functional, Natural killer cell
[6] = Induction of activation of human CD56+ CD3- NK cells co-cultured with human K562 cells in 1:1 ratio and assessed as increase in IFN-gamma secretion at 1 uM measured by ELISA assay; format: functional, Natural killer cell
[7] = Induction of activation of human CD56+ CD3- NK cells co-cultured with human K562 cells in 5:1 ratio and assessed as increase in TNF-alpha secretion at 10 uM measured by ELISA assay; format: functional, Natural killer cell
[8] = Induction of activation of human CD56+ CD3- NK cells co-cultured with human K562 cells in 5:1 ratio and assessed as increase in TNF-alpha secretion at 1 uM measured by ELISA assay; format: functional, Natural killer cell
[9] = Induction of activation of human CD56+ CD3- NK cells co-cultured with human K562 cells in 1:1 ratio and assessed as increase in TNF-alpha secretion at 10 uM measured by ELISA assay; format: functional, Natural killer cell
[10] = Induction of activation of human CD56+ CD3- NK cells co-cultured with human K562 cells in 1:1 ratio and assessed as increase in TNF-alpha secretion at 1 uM measured by ELISA assay; format: functional, Natural killer cell
[11] = Induction of activation of human CD56+ CD3- NK cells co-cultured with human K562 cells in 5:1 ratio and assessed as increase in MIP1beta secretion at 10 uM measured by ELISA assay; format: functional, Natural killer cell
[12] = Induction of activation of human CD56+ CD3- NK cells co-cultured with human K562 cells in 5:1 ratio and assessed as increase in MIP1beta secretion at 1 uM measured by ELISA assay; format: functional, Natural killer cell
[13] = Induction of activation of human CD56+ CD3- NK cells co-cultured with human K562 cells in 1:1 ratio and assessed as increase in MIP1beta secretion at 10 uM measured by ELISA assay; format: functional, Natural killer cell
[14] = Induction of activation of human CD56+ CD3- NK cells co-cultured with human K562 cells in 1:1 ratio and assessed as increase in MIP1beta secretion at 1 uM measured by ELISA assay; format: functional, Natural killer cell
[15] = Induction of anti-CD3/CD28 antibodies-stimulated human T cell activation at 4 uM assessed fold increase in IL-2 secretion measured by ELISA assay; format: functional, T cell line
[16] = Induction of anti-CD3/CD28 antibodies-stimulated human T cell activation at 1 uM assessed fold increase in IL-2 secretion measured by ELISA assay; format: functional, T cell line
[17] = Induction of anti-CD3/CD28 antibodies-stimulated human T cell activation at 0.3 uM assessed fold increase in IL-2 secretion measured by ELISA assay; format: functional, T cell line
[18] = Induction of anti-CD3 antibodies-stimulated human T cell activation at 8 uM assessed fold increase in IL-2 secretion measured by ELISA assay; format: functional, T cell line; note: reference of the scale not given here
[19] = Induction of anti-CD3 antibodies-stimulated human T cell activation at 1 uM assessed fold increase in IL-2 secretion measured by ELISA assay; format: functional, T cell line; note: reference of the scale not given here
[20] = Induction of anti-CD3/CD28 antibodies-stimulated human T cell activation at 4 uM assessed fold increase in CD25 expression measured by ELISA assay; format: functional, T cell line
[21] = Induction of anti-CD3/CD28 antibodies-stimulated human T cell activation at 1 uM assessed fold increase in CD25 expression measured by ELISA assay; format: functional, T cell line
[22] = Induction of anti-CD3/CD28 antibodies-stimulated human T cell activation at 0.3 uM assessed fold increase in CD25 expression measured by ELISA assay; format: functional, T cell line
[23] = Induction of anti-CD3 antibodies-stimulated human T cell activation at 8 uM assessed fold increase in CD25 expression measured by ELISA assay; format: functional, T cell line; note: reference of the scale not given here
[24] = Induction of anti-CD3 antibodies-stimulated human T cell activation at 1 uM assessed fold increase in CD25 expression measured by ELISA assay; format: functional, T cell line; note: reference of the scale not given here
[25] = target: T1, E3 ubiquitin-protein ligase CBL-B; assay: Inhibition of N-terminal Avi-tagged human CBL-B (36 to 427 residues) incubated with 60 nM Src kinase for 1.5 hrs followed by incubation with fluorescently labeled UbcH5B-Ub for 1 hr and measured by TR-FRET assay; format: single protein
[26] = Induction of anti-CD3 antibodies-stimulated human CD4+ T cell activation in immunocompetent mouse assessed fold increase in CD25 expression at 90 mg/kg, po administered twice a day; format: functional; note: reference of the scale not given here
[27] = Induction of anti-CD3 antibodies-stimulated human CD4+ T cell activation in immunocompetent mouse assessed fold increase in CD25 expression at 135 mg/kg, po administered twice a day; format: functional; note: reference of the scale not given here
[28] = Induction of anti-CD3 antibodies-stimulated human CD4+ T cell activation in immunocompetent mouse assessed fold increase in CD25 expression at 180 mg/kg, po administered twice a day; format: functional; note: reference of the scale not given here
[29] = Induction of anti-CD3 antibodies-stimulated human CD8+ T cell activation in immunocompetent mouse assessed fold increase in CD25 expression at 45 mg/kg, po administered twice a day; format: functional; note: reference of the scale not given here
[30] = Induction of anti-CD3 antibodies-stimulated human CD8+ T cell activation in immunocompetent mouse assessed fold increase in CD25 expression at 90 mg/kg, ip administered thrice a day; format: functional; note: reference of the scale not given here
[31] = Induction of anti-CD3 antibodies-stimulated human CD8+ T cell activation in immunocompetent mouse assessed fold increase in CD25 expression at 90 mg/kg, po administered twice a day; format: functional; note: reference of the scale not given here
[32] = Induction of anti-CD3 antibodies-stimulated human CD8+ T cell activation in immunocompetent mouse assessed fold increase in CD25 expression at 135 mg/kg, po administered twice a day; format: functional; note: reference of the scale not given here
[33] = Induction of anti-CD3 antibodies-stimulated human CD8+ T cell activation in immunocompetent mouse assessed fold increase in CD25 expression at 180 mg/kg, po administered twice a day; format: functional; note: reference of the scale not given here
[34] = Induction of anti-CD3 antibodies-stimulated human CD4+ T cell activation in immunocompetent mouse assessed fold increase in CD25 expression at 90 mg/kg, ip administered twice a day; format: functional; note: reference of the scale not given here

T1 sequence (Q13191 whole entry, the tested form may be a part): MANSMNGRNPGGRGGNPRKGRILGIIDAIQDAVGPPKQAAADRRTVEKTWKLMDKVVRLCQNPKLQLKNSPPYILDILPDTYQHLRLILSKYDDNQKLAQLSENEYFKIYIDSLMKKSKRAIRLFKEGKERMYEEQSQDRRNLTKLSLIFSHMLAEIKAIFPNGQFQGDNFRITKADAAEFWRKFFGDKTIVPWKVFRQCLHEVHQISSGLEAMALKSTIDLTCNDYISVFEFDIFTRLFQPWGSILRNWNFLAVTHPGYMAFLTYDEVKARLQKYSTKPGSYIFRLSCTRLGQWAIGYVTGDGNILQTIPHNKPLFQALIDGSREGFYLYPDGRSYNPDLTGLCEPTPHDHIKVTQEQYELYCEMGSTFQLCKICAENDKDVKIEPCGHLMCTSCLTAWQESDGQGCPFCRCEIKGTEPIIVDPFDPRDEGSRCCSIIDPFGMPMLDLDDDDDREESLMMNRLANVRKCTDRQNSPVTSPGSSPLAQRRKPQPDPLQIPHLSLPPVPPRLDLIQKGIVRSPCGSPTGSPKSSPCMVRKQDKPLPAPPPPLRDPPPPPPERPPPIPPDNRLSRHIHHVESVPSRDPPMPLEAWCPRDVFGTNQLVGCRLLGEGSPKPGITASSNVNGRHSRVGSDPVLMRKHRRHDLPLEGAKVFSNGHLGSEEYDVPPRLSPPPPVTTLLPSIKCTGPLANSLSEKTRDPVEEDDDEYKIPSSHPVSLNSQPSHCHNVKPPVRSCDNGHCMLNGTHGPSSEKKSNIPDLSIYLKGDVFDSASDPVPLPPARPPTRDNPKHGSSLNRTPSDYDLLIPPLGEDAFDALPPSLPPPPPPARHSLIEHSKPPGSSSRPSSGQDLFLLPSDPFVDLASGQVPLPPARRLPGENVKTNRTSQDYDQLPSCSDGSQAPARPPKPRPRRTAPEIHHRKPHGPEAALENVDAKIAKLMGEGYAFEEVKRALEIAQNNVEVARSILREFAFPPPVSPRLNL

Compound | fold change (FC) [3] | fold change (FC) [4] | fold change (FC) [5] | fold change (FC) [6] | fold change (FC) [7] | fold change (FC) [8] | fold change (FC) [9] | fold change (FC) [10] | fold change (FC) [11] | fold change (FC) [12] | fold change (FC) [13] | fold change (FC) [14] | fold change (FC) [15] | fold change (FC) [16] | fold change (FC) [17] | fold change (FC) [18] | fold change (FC) [19] | fold change (FC) [21] | fold change (FC) [22] | fold change (FC) [24] | other results
C[C@@H](Sc1nncn1C)c1cccc(NC(=O)c2ccc3ccccc3n2)c1 | <=1 | <=1 | <=1 | <=1 | <=1 | <=1 | <=1 | <=1 | <=1 | <=1 | <=1 | 1.01 | – | – | – | – | – | – | – | – | IC50 [1]: > 10000 nM; Kd [2]: ≥ 3000 nM
Cn1cnnc1C(F)(F)[C@](C)(F)c1cccc(N2Cc3c(cccc3C(F)(F)F)C2=O)c1 | 1.01 | <=1 | 2.01 | 1.01 | <=1 | <=1 | 1.01 | <=1 | <=1 | <=1 | <=1 | <=1 | 2.51 | 1.01 | 1.01 | >=0.201 | 0.151 | 1.01 | 1.01 | 0.601 | fold change (FC) [20]: 1.01; fold change (FC) [23]: >=1.001
Cn1cnnc1C(F)(F)[C@](C)(F)c1cccc(N2Cc3c(cc(CN4CC[C@H](F)C4)cc3C(F)(F)F)C2=O)c1 | >=5 | >=5 | >=5 | 2.01 | >=5 | 2.01 | 2.01 | 2.01 | 2.01 | 1.01 | 1.01 | <=1 | >=7.5 | >=7.5 | 2.51 | >=0.201 | >=0.201 | 1.51 | 1.31 | >=1.001 | IC50 [25]: < 100 nM; Kd [2]: < 100 nM; fold change (FC) [20]: 1.51; fold change (FC) [23]: >=1.001; fold change (FC) [26]: 1; fold change (FC) [27]: 1; fold change (FC) [28]: 1.51; fold change (FC) [29]: <1; fold change (FC) [30]: <1; fold change (FC) [31]: 1; fold change (FC) [32]: 1; fold change (FC) [33]: 1
C[C@@H]1CN(Cc2cc3c(c(C(F)(F)F)c2)CN(c2cccc(C4(Cc5nncn5C)COC4)c2)C3=O)CCO1 | – | – | – | – | – | – | – | – | – | – | – | – | – | >=7.5 | >=7.5 | – | >=0.201 | 1.31 | 1.31 | >=1.001 | IC50 [25]: < 100 nM; fold change (FC) [34]: 1; fold change (FC) [27]: 1.51; fold change (FC) [29]: 1; fold change (FC) [31]: 1
C[C@H](Cc1nncn1C)c1cccc(NC(=O)c2cc(C(=O)N3CC[C@H](O)C3)cc(C(F)(F)F)n2)c1 | 2.01 | 1.01 | 2.01 | 1.01 | 2.01 | 1.01 | 2.01 | 1.01 | 2.01 | 1.01 | 2.01 | 1.01 | >=7.5 | >=7.5 | 2.51 | >=0.201 | >=0.201 | 1.51 | 1.31 | >=1.001 | IC50 [25]: < 100 nM; Kd [2]: < 100 nM; fold change (FC) [20]: >=1.76; fold change (FC) [23]: >=1.001
Cn1cnnc1C(F)(F)[C@](C)(F)c1cccc(N2Cc3c(cc(CN4CCC(F)(F)C4)cc3C(F)(F)F)C2=O)c1 | >=5 | 1.01 | >=5 | 1.01 | 2.01 | 1.01 | 2.01 | 1.01 | 2.01 | 1.01 | 2.01 | 1.01 | >=7.5 | 2.51 | 1.01 | >=0.201 | 0.101 | 1.01 | 1.01 | 0.801 | IC50 [25]: < 100 nM; Kd [2]: < 100 nM; fold change (FC) [20]: 1.31; fold change (FC) [23]: >=1.001; fold change (FC) [26]: 1; fold change (FC) [27]: 1; fold change (FC) [28]: 1; fold change (FC) [29]: 1; fold change (FC) [30]: <1; fold change (FC) [31]: <1; fold change (FC) [32]: <1; fold change (FC) [33]: <1
Cn1cnnc1CC1(c2cccc(N3Cc4c(cc(CN5CC[C@@H](C#N)C5)cc4C(F)(F)F)C3=O)c2)COC1 | – | – | – | – | – | – | – | – | – | – | – | – | >=7.5 | >=7.5 | 5 | >=0.201 | 0.101 | 1.01 | 1.01 | >=1.001 | IC50 [25]: < 100 nM; fold change (FC) [20]: 1.31; fold change (FC) [23]: >=1.001; fold change (FC) [26]: <1; fold change (FC) [27]: <1; fold change (FC) [28]: <1; fold change (FC) [29]: <1; fold change (FC) [30]: <1; fold change (FC) [31]: <1; fold change (FC) [32]: <1; fold change (FC) [33]: <1
